Experimental data taken from article PMC8162404, “Proteomimetic surface fragments distinguish targets by function” (Chemical Science, 2020).

Key:
Assay in all cases: Pull-down assay with immobilized protein and LSM libraries
CaM = biological target: T1, CaM (Bos taurus, UniProt P62157); assay type: binding, bovine; conditions: H12 library; 1:2 stoichiometry assumed; read-out: Surface mapping KD (apparent)
T1 construct: made in house; host or cells: E. coli BL21 (DE3)
How it was run: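 CaM buffer was 20 mM HEPES pH 7.4, 150 mM NaCl, 5 mM CaCl2. LSM sublibrary members ([…]) incubated 30 min, RT, with equimolar His-tagged protein on Co-NTA resin. HPLC-MS measured unbound probes; bound fraction relative to resin-only background gave dissociation constants.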

Gal-1 = biological target: T2, Gal-1 (Homo sapiens, UniProt P09382); assay type: binding; conditions: H12 library; 1:1 binding assumed; read-out: Surface mapping KD (apparent)
T2 construct: made in house; host or cells: E. coli BL21(DE3)
How it was run: (§1)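 Buffers were HEPES pH 7.4 with 150 mM NaCl, plus 1 mM TCEP and 1 mM CaCl2 (50 mM HEPES) for S100A4 and S100B, 1 mM TCEP for Gal-1, and no additive for RecQ-WH. Immobilized protein at 64 µM was equilibrated 30 min with the LSM sublibrary, and unbound probes were measured by LC-MS.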

S100A4 = biological target: T3, S100A4 (Homo sapiens, UniProt P26447); assay type: binding; conditions: H12 library; 1:1 binding assumed; read-out: Surface mapping KD (apparent)
T3 construct: made in house; host or cells: Escherichia coli BL21(DE3)
How it was run: as §1

S100B = biological target: T4, S100B (Homo sapiens, UniProt P04271); assay type: binding; conditions: H12 library; 1:1 binding assumed; read-out: Surface mapping KD (apparent)
T4 construct: made in house; host or cells: Escherichia coli BL21(DE3)
T4 sequence (P04271 1-92): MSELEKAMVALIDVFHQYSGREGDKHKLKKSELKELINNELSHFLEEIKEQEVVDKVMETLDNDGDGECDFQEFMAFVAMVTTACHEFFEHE
How it was run: as §1

T2 sequence (P09382 whole entry): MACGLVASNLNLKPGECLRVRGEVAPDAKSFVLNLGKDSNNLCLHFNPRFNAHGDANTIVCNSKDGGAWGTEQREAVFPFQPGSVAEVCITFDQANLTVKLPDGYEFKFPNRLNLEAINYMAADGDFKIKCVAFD
T3 sequence (P26447 whole entry): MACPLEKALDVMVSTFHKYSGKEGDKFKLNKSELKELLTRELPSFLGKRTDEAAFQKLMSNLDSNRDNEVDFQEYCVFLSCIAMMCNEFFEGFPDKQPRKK

| Kd (CaM) | Kd (Gal-1) | Kd (S100A4) | Kd (S100B) | Structure (SMILES) |
| --- | --- | --- | --- | --- |
| 134 µM | 136 µM | 75 µM | 10 µM | NC(=O)[C@H]1CCC[C@@H]1NC(=O)[C@H]1CCC[C@@H]1NC(=O)C[C@H](Cc1c[nH]c2ccccc12)NC(=O)[C@H]1CCC[C@@H]1NC(=O)[C@H]1CCC[C@@H]1NC(=O)C[C@H](Cc1ccccc1)NC(=O)[C@H]1CCC[C@@H]1NC(=O)[C@H]1CCC[C@@H]1N [H12 FW] |
| 28 µM | 376 µM | 32 µM | 22 µM | CC[C@H](C)[C@@H](CC(=O)N[C@H]1CCC[C@@H]1C(=O)N[C@H]1CCC[C@@H]1C(=O)N[C@H](CC(=O)N[C@H]1CCC[C@@H]1C(=O)N[C@H]1CCC[C@@H]1C(N)=O)Cc1ccccc1)NC(=O)[C@H]1CCC[C@@H]1NC(=O)[C@H]1CCC[C@@H]1N [H12 IF] |
| 67 µM | 395 µM | 79 µM | 25 µM | CC[C@H](C)[C@@H](CC(=O)N[C@H]1CCC[C@@H]1C(=O)N[C@H]1CCC[C@@H]1C(N)=O)NC(=O)[C@H]1CCC[C@@H]1NC(=O)[C@H]1CCC[C@@H]1NC(=O)C[C@@H](NC(=O)[C@H]1CCC[C@@H]1NC(=O)[C@H]1CCC[C@@H]1N)[C@@H](C)CC [H12 II] |
| 67 µM | 395 µM | 79 µM | 25 µM | CC[C@H](C)[C@@H](CC(=O)N[C@H]1CCC[C@@H]1C(=O)N[C@H]1CCC[C@@H]1C(=O)N[C@H](CC(=O)N[C@H]1CCC[C@@H]1C(=O)N[C@H]1CCC[C@@H]1C(N)=O)CC(C)C)NC(=O)[C@H]1CCC[C@@H]1NC(=O)[C@H]1CCC[C@@H]1N [H12 IL] |
| 211 µM | 378 µM | 381 µM | 74 µM | CC[C@H](C)[C@@H](CC(=O)N[C@H]1CCC[C@@H]1C(=O)N[C@H]1CCC[C@@H]1C(=O)N[C@@H](CCSC)CC(=O)N[C@H]1CCC[C@@H]1C(=O)N[C@H]1CCC[C@@H]1C(N)=O)NC(=O)[C@H]1CCC[C@@H]1NC(=O)[C@H]1CCC[C@@H]1N [H12 IM] |
| 270 µM | 463 µM | 373 µM | 57 µM | CC[C@H](C)[C@@H](CC(=O)N[C@H]1CCC[C@@H]1C(=O)N[C@H]1CCC[C@@H]1C(=O)N[C@H](CC(=O)N[C@H]1CCC[C@@H]1C(=O)N[C@H]1CCC[C@@H]1C(N)=O)C(C)C)NC(=O)[C@H]1CCC[C@@H]1NC(=O)[C@H]1CCC[C@@H]1N [H12 IV] |
| 19 µM | 368 µM | 28 µM | 11 µM | CC[C@H](C)[C@@H](CC(=O)N[C@H]1CCC[C@@H]1C(=O)N[C@H]1CCC[C@@H]1C(=O)N[C@H](CC(=O)N[C@H]1CCC[C@@H]1C(=O)N[C@H]1CCC[C@@H]1C(N)=O)Cc1c[nH]c2ccccc12)NC(=O)[C@H]1CCC[C@@H]1NC(=O)[C@H]1CCC[C@@H]1N [H12 IW] |
| 28 µM | 347 µM | 100 µM | 56 µM | CC[C@H](C)[C@@H](CC(=O)N[C@H]1CCC[C@@H]1C(=O)N[C@H]1CCC[C@@H]1C(=O)N[C@H](CC(=O)N[C@H]1CCC[C@@H]1C(=O)N[C@H]1CCC[C@@H]1C(N)=O)Cc1ccc(O)cc1)NC(=O)[C@H]1CCC[C@@H]1NC(=O)[C@H]1CCC[C@@H]1N [H12 IY] |
| 239 µM | 292 µM | 416 µM | 66 µM | NCCCC[C@@H](CC(=O)N[C@H]1CCC[C@@H]1C(=O)N[C@H]1CCC[C@@H]1C(=O)N[C@H](CC(=O)N[C@H]1CCC[C@@H]1C(=O)N[C@H]1CCC[C@@H]1C(N)=O)Cc1ccccc1)NC(=O)[C@H]1CCC[C@@H]1NC(=O)[C@H]1CCC[C@@H]1N [H12 KF] |
| 324 µM | 316 µM | 89 µM | 68 µM | CC(C)C[C@@H](CC(=O)N[C@H]1CCC[C@@H]1C(=O)N[C@H]1CCC[C@@H]1C(N)=O)NC(=O)[C@H]1CCC[C@@H]1NC(=O)[C@H]1CCC[C@@H]1NC(=O)C[C@H](CCCCN)NC(=O)[C@H]1CCC[C@@H]1NC(=O)[C@H]1CCC[C@@H]1N [H12 KL] |
| 51 µM | 161 µM | 456 µM | 39 µM | NCCCC[C@@H](CC(=O)N[C@H]1CCC[C@@H]1C(=O)N[C@H]1CCC[C@@H]1C(=O)N[C@H](CC(=O)N[C@H]1CCC[C@@H]1C(=O)N[C@H]1CCC[C@@H]1C(N)=O)Cc1c[nH]c2ccccc12)NC(=O)[C@H]1CCC[C@@H]1NC(=O)[C@H]1CCC[C@@H]1N [H12 KW] |
| 28 µM | 376 µM | 32 µM | 22 µM | CC(C)C[C@@H](CC(=O)N[C@H]1CCC[C@@H]1C(=O)N[C@H]1CCC[C@@H]1C(=O)N[C@H](CC(=O)N[C@H]1CCC[C@@H]1C(=O)N[C@H]1CCC[C@@H]1C(N)=O)Cc1ccccc1)NC(=O)[C@H]1CCC[C@@H]1NC(=O)[C@H]1CCC[C@@H]1N [H12 LF] |
| 67 µM | 415 µM | 143 µM | 37 µM | CC[C@H](C)[C@@H](CC(=O)N[C@H]1CCC[C@@H]1C(=O)N[C@H]1CCC[C@@H]1C(N)=O)NC(=O)[C@H]1CCC[C@@H]1NC(=O)[C@H]1CCC[C@@H]1NC(=O)C[C@H](CC(C)C)NC(=O)[C@H]1CCC[C@@H]1NC(=O)[C@H]1CCC[C@@H]1N [H12 LI] |
| 67 µM | 415 µM | 131 µM | 46 µM | CC(C)C[C@@H](CC(=O)N[C@H]1CCC[C@@H]1C(=O)N[C@H]1CCC[C@@H]1C(N)=O)NC(=O)[C@H]1CCC[C@@H]1NC(=O)[C@H]1CCC[C@@H]1NC(=O)C[C@H](CC(C)C)NC(=O)[C@H]1CCC[C@@H]1NC(=O)[C@H]1CCC[C@@H]1N [H12 LL] |
| 211 µM | 378 µM | 381 µM | 74 µM | CSCC[C@@H](CC(=O)N[C@H]1CCC[C@@H]1C(=O)N[C@H]1CCC[C@@H]1C(N)=O)NC(=O)[C@H]1CCC[C@@H]1NC(=O)[C@H]1CCC[C@@H]1NC(=O)C[C@H](CC(C)C)NC(=O)[C@H]1CCC[C@@H]1NC(=O)[C@H]1CCC[C@@H]1N [H12 LM] |
| 236 µM | 120 µM | 345 µM | 29 µM | CC(C)C[C@@H](CC(=O)N[C@H]1CCC[C@@H]1C(=O)N[C@H]1CCC[C@@H]1C(=O)N[C@@H](CCCNC(=N)N)CC(=O)N[C@H]1CCC[C@@H]1C(=O)N[C@H]1CCC[C@@H]1C(N)=O)NC(=O)[C@H]1CCC[C@@H]1NC(=O)[C@H]1CCC[C@@H]1N [H12 LR] |
| 19 µM | 368 µM | 28 µM | 11 µM | CC(C)C[C@@H](CC(=O)N[C@H]1CCC[C@@H]1C(=O)N[C@H]1CCC[C@@H]1C(=O)N[C@H](CC(=O)N[C@H]1CCC[C@@H]1C(=O)N[C@H]1CCC[C@@H]1C(N)=O)Cc1c[nH]c2ccccc12)NC(=O)[C@H]1CCC[C@@H]1NC(=O)[C@H]1CCC[C@@H]1N [H12 LW] |
| 28 µM | 347 µM | 100 µM | 56 µM | CC(C)C[C@@H](CC(=O)N[C@H]1CCC[C@@H]1C(=O)N[C@H]1CCC[C@@H]1C(=O)N[C@H](CC(=O)N[C@H]1CCC[C@@H]1C(=O)N[C@H]1CCC[C@@H]1C(N)=O)Cc1ccc(O)cc1)NC(=O)[C@H]1CCC[C@@H]1NC(=O)[C@H]1CCC[C@@H]1N [H12 LY] |
| 101 µM | 281 µM | 358 µM | 54 µM | CC[C@H](C)[C@@H](CC(=O)N[C@H]1CCC[C@@H]1C(=O)N[C@H]1CCC[C@@H]1C(N)=O)NC(=O)[C@H]1CCC[C@@H]1NC(=O)[C@H]1CCC[C@@H]1NC(=O)C[C@H](CCSC)NC(=O)[C@H]1CCC[C@@H]1NC(=O)[C@H]1CCC[C@@H]1N [H12 MI] |
| 96 µM | 202 µM | 140 µM | 40 µM | N=C(N)NCCC[C@@H](CC(=O)N[C@H]1CCC[C@@H]1C(=O)N[C@H]1CCC[C@@H]1C(=O)N[C@H](CC(=O)N[C@H]1CCC[C@@H]1C(=O)N[C@H]1CCC[C@@H]1C(N)=O)Cc1ccccc1)NC(=O)[C@H]1CCC[C@@H]1NC(=O)[C@H]1CCC[C@@H]1N [H12 RF] |
| 252 µM | 194 µM | 245 µM | 56 µM | CC[C@H](C)[C@@H](CC(=O)N[C@H]1CCC[C@@H]1C(=O)N[C@H]1CCC[C@@H]1C(N)=O)NC(=O)[C@H]1CCC[C@@H]1NC(=O)[C@H]1CCC[C@@H]1NC(=O)C[C@H](CCCNC(=N)N)NC(=O)[C@H]1CCC[C@@H]1NC(=O)[C@H]1CCC[C@@H]1N [H12 RI] |
| 252 µM | 194 µM | 245 µM | 56 µM | CC(C)C[C@@H](CC(=O)N[C@H]1CCC[C@@H]1C(=O)N[C@H]1CCC[C@@H]1C(N)=O)NC(=O)[C@H]1CCC[C@@H]1NC(=O)[C@H]1CCC[C@@H]1NC(=O)C[C@H](CCCNC(=N)N)NC(=O)[C@H]1CCC[C@@H]1NC(=O)[C@H]1CCC[C@@H]1N [H12 RL] |
| 464 µM | 201 µM | 335 µM | 96 µM | CSCC[C@@H](CC(=O)N[C@H]1CCC[C@@H]1C(=O)N[C@H]1CCC[C@@H]1C(N)=O)NC(=O)[C@H]1CCC[C@@H]1NC(=O)[C@H]1CCC[C@@H]1NC(=O)C[C@H](CCCNC(=N)N)NC(=O)[C@H]1CCC[C@@H]1NC(=O)[C@H]1CCC[C@@H]1N [H12 RM] |
